Values of other authors, collected in US11708332B2, “Human plasma kallikrein inhibitors” (BioCryst Pharmaceuticals, Inc., priority 2014, dated 2023).

Key:
[1] = tested on: hereditary angioedema (HAE)
[2] = tested on: lipopolysaccharide (LPS)- or bacterial-induced sepsis; settings: LPS- or bacterial-induced sepsis in animals
[3] = tested on: middle cerebral artery occlusion (MCAO); settings: mouse model of MCAO

Molecule: NC(N)=NCCC[C@@H](N)C(=O)N[C@@H](CCCN=C(N)N)C(=O)N1CCC[C@H]1C(=O)N1C[C@H](O)C[C@H]1C(=O)NCC(=O)N[C@@H](Cc1cccs1)C(=O)N[C@@H](CO)C(=O)N1Cc2ccccc2C[C@@H]1C(=O)N1[C@H](C(=O)N[C@@H](CCCN=C(N)N)C(=O)O)C[C@@H]2CCCC[C@@H]21 [Icatibant]
- effectiveness in treating HAE ([1]; HAE): effective

Molecule: H-D-Pro-Phe-Arg-chloromethylketone
- lesions [2]: reduce

Molecule: ecallantide [DX-88]
- edema in patients with hereditary angioedema (HAE) ([1]; patients with HAE): alleviates edema

B1: Cl-inhibitor: "Cl-inhibitor reduced infarct size in a mouse model of middle cerebral artery occlusion (MCAO)" (protein, UniProt P05155 23-500, looked up)
Plasma protease C1 inhibitor: NPNATSSSSQDPESLQDRGEGKVATTVISKMLFVEPILEVSSLPTTNSTTNSATKITANTTDEPTTQPTTEPTTQPTIQPTQPTTQLPTDSPTQPTTGSFCPGPVTLCSDLESHSTEAVLGDALVDFSLKLYHAFSAMKKVETNMAFSPFSIASLLTQVLLGAGENTKTNLESILSYPKDFTCVHQALKGFTTKGVTSVSQIFHSPDLAIRDTFVNASRTLYSSSPRVLSNNSDANLELINTWVAKNTNNKISRLLDSLPSDTRLVLLNAIYLSAKWKTTFDPKKTRMEPFHFKNSVIKVPMMNSKKYPVAHFIDQTLKAKVGQLQLSHNLSLVILVPQNLKHRLEDMEQALSPSVFKAIMEKLEMSKFQPTLLTLPRIKVTTSQDMLSIMEKLEFFDFSYDLNLCGLTEDPDLQVSAMQHQTVLELTETGVEAAAASAISVARTLLVFEVQQPFLFVLWDQQHKFPVFMGRVYDPRA
- infarct size [3]: reduced

B2: C1-inhibitor: "a physiological inhibitor (C1-inhibitor)" (protein, UniProt P05155 23-500, looked up)
Plasma protease C1 inhibitor: B1 Plasma protease C1 inhibitor
- lesions [2]: reduce
